Measurements as given in patent US20050222043A1, “Use of proteasome inhibitor in the treatment of fibrotic diseases” (priority 2002, published 2005).
“Also recorded” adds a separate entry of the source. Peptide text beside a SMILES is read from it. * marks the point of attachment. Cbz = O=C(OCc1ccccc1)*

Experiments:
MMP2 and MMP9 = assay: Real-time PCR of MMP expression in cardiac fibroblasts; assay type: cell-based, rat; conditions: FIG. 4A
Description: (§1) Cardiac fibroblasts were prepared from neonatal Wistar rats by plating the non-myocyte fraction of neonatal hearts. The hearts were removed from neonatal rats being 2-3 days old. Ventricular tissue was treated over night at 4° C. with […] trypsin in Hanks-Balanced Salt Saline (HBSS) (Ca^2+- and Mg^2+-free, Invitrogen™, Karlsruhe, Germany) and with collagenase (0,5 mg per ml) in Leibowitz medium (L-15, Invitrogen™, Karlsruhe, Germany) for 45 minutes at 37° C. After washing, the cells were pre-plated at 37° C. for one hour. The adherent cells predominantly were cardiac fibroblasts, which were then further cultivated under standard conditions in standard M199-medium with 10% new-born calf serum, L-glutamine and penicillin-streptomycin (Invitrogen™, Karlsruhe, Germany). In the experiments, we used sub-cultivated fibroblasts of the passages 3-7.
(§2) Total RNA was extracted by means of Trizol reagent (Invitrogen™, Karlsruhe, Germany). In the following, the RNA was subjected to reverse transcription (AMF Reverse Transkriptase, Roche Biochemicals, Mannheim, Germany) and treated with DNase (Ambion, Huntington, UK). […] The relative quantification was performed by means to the comparative CT-method as being described by the manufacturer. […]

[1] = test system: spontaneously hypertensive rats (SH-rats); assay: Left-ventricular pressure parameters in SH-rats; assay type: in vivo, rat; conditions: 1 mg/kg daily i.p., 12 weeks
Description: (§3) Male SH-rats of the same age were obtained from the Jackson Laboratory, Maine, USA. The animals were maintained according to the international guidelines for the keeping und use of laboratory animals. 6-week-old rats were treated for 12 weeks with MG132 (1 mg per kg body weight), 0,1% DMSO as solvent control or with physiological saline (n=10 per group, daily intraperitoneal injection). The animals were fed with a high salt diet (drinking water with 2% sodium chloride). The blood pressure was measured weekly by means of the standard tail-cuff method. The blood values and the standard laboratory markers of the renal and hepatic functions were determined 6 weeks after the treatment and at the end of the study by means of standard methods. At the end of the study, the animals were anaesthetised by means of an intraperitoneal injection of a 20% urethane solution (0,9 g per kg body weight) and the left-ventricular pressure parameters were determined as being described by Saragoca, M. et al. (1981) Hypertension, 3, 380-385. The organs were withdrawn, weighed and either shock-frozen in liquid nitrogen or embedded in paraffin for the histological analysis. Since no difference was observed between the DMSO-treated and the salt-treated SH-rats in respect to the above mentioned parameters, the DMSO-treated animals served as a control for the MG132-treatment.
The data was determined in the form of mean values ±S.E.M., if not otherwise indicated. The significance of the differences in the left-ventricular pressure parameters and in the quantification of the heart fibrosis was determined according to Student's T-test. For the cell proliferation test, the significance was determined by comparing the regression coefficients of MG132 in relation to the control group. An error probability of p<0,05 was considered as being significant. The software SPSS 9.0 was used for all statistical calculations.

cardiac fibroblasts = assay: Proliferation test (trypanblue exclusion cell counting); assay type: cell-based, rat; conditions: 0,1 and 1 μM, 10% serum, counted daily for 7 days
Description: Cardiac fibroblasts were prepared from neonatal Wistar rats by plating the non-myocyte fraction of neonatal hearts. The hearts were removed from neonatal rats being 2-3 days old. Ventricular tissue was treated over night at 4° C. with […] trypsin in Hanks-Balanced Salt Saline (HBSS) (Ca^2+- and Mg^2+-free, Invitrogen™, Karlsruhe, Germany) and with collagenase (0,5 mg per ml) in Leibowitz medium (L-15, Invitrogen™, Karlsruhe, Germany) for 45 minutes at 37° C. After washing, the cells were pre-plated at 37° C. for one hour. […]
MG132, ALLM and MG262 were purchased at Calbiochem® (San Diego, Calif., USA) and provided as 10 mM DMSO stock solutions. […] The proliferation was determined by counting the living cells in triplicate in daily intervals by means of the trypanblue exclusion test. […]
The data was determined in the form of mean values ±S.E.M., if not otherwise indicated. The significance of the differences in the left-ventricular pressure parameters and in the quantification of the heart fibrosis was determined according to Student's T-test. For the cell proliferation test, the significance was determined by comparing the regression coefficients of MG132 in relation to the control group. […]

NFκB = assay: Band shift analysis for active NFκB in nuclear extracts of cardiac fibroblasts; assay type: cell-based, rat; conditions: 0,5 μM with IL-1β; not less than 6 hours
Description: This was additionally confirmed in band shift analyses with oligonucleotides comprising a NFκB-DNA binding site. For this test, nuclear extracts from cardiac fibroblasts were prepared, which were treated with 0,5 μM MG132 or, respectively, with DMSO (solvent control) in a time course in the presence or absence of IL-1β.

collagen IIIα1 = assay: Real-time PCR of collagen IIIα1 mRNA in cardiac fibroblasts; assay type: cell-based, rat; conditions: primary cardiac fibroblasts
Description: as §1
(§4) Total RNA was extracted by means of Trizol reagent (Invitrogen™, Karlsruhe, Germany). In the following, the RNA was subjected to reverse transcription (AMF Reverse Transkriptase, Roche Biochemicals, Mannheim, Germany) and treated with DNase (Ambion, Huntington, UK). […] The relative quantification was performed by means to the comparative CT-method as being described by the manufacturer.

collagen Iα2 = assay: Real-time PCR of collagen Iα2 mRNA in cardiac fibroblasts; assay type: cell-based, rat; conditions: primary cardiac fibroblasts
Description: as §1, §4

[2] = test system: spontaneously hypertensive rats (SH-rats); assay: Histological determination of cardiac fibrosis (quantitative morphometry of siriusred-stained left-ventricular sections) in SH-rats; assay type: in vivo, rat; conditions: MG132-treated, FIG. 1B
Description: For the pathohistological evaluation, the rat hearts were embedded into paraffin, cut into sections having a thickness of 3 μm, subjected to a haematoxylin-eosin and siriusred staining and analysed as being described in Hocher, B. et al., (1999), Hypertension, 3, 816-822. The degree of heart fibrosis was evaluated by means of quantitative morphometry of the siriusred-stained sections with an image analysis system (Quantimed 500, Image 1.61 program). In this analysis, the ratio of the red-stained tissue (connective tissue) and the total tissue of the section was determined.
Male SH-rats of the same age were obtained from the Jackson Laboratory, Maine, USA. […] The blood pressure was measured weekly by means of the standard tail-cuff method. The blood values and the standard laboratory markers of the renal and hepatic functions were determined 6 weeks after the treatment and at the end of the study by means of standard methods. At the end of the study, the animals were anaesthetised by means of an intraperitoneal injection of a 20% urethane solution (0,9 g per kg body weight) and the left-ventricular pressure parameters were determined as being described by Saragoca, M. et al. (1981) Hypertension, 3, 380-385. […]
The data was determined in the form of mean values ±S.E.M., if not otherwise indicated. […]

collagen Iα1 = assay: Real-time PCR of collagen Iα1 mRNA in cardiac fibroblasts; assay type: cell-based, rat; conditions: primary cardiac fibroblasts
Description: as §1, §4

[3] = test system: spontaneously hypertensive rats (SH-rats); assay: Animal study: tolerability, blood pressure, weights, blood values in SH-rats; assay type: in vivo, rat
Description: as §3

[4] = test system: collagens Iα1, Iα2 and IIIα1; assay: Real-time PCR of collagen expression (stated jointly) in cardiac fibroblasts; assay type: cell-based, rat; conditions: primary cardiac fibroblasts, FIG. 2B
Description: as §1, §2

Row | SMILES | expression of MMP2 and MMP9 under co-stimulation with IL-1β (MMP2 and MMP9) | LVEDP compared with control (in words) ([1]; 1 mg/kg) | dp/dtmax compared with control (in words) ([1]; 1 mg/kg) | left-ventricular end-diastolic (filling) pressure LVEDP ([1]; mean ± S.E.M.) | maximal pressure drop rate dp/dtmin ([1]; mean ± S.E.M.) | inhibition of proliferation / growth of cardiac fibroblasts (cardiac fibroblasts) | effect on IL-1β-induced NFκB activation (band shift) (NFκB) | expression of collagen IIIα1 (in words) (collagen IIIα1; FIG. 2B) | down-regulation / inhibition of collagen IIIα1 RNA expression (collagen IIIα1; dose-dependent) | expression of collagen Iα2 (in words) (collagen Iα2; FIG. 2B) | down-regulation / inhibition of collagen Iα2 RNA expression (collagen Iα2; dose-dependent) | cardiac fibrosis in heart section (in words) [2] | expression of collagen Iα1 (collagen Iα1) | tolerability of long-term treatment ([3]; SH-rats, 1 mg per kg daily, 12 weeks) | Body Weight ([3]; SH-rats, 1 mg/kg MG132) | differential blood picture and laboratory markers of kidney or liver side effects ([3]; blood samples after 6 weeks and at end of study) | effect on collagen expression [4]
1 | CC(C)C[C@@H](C=O)NC(=O)[C@H](CC(C)C)NC(=O)[C@H](CC(C)C)NC(=O)OCc1ccccc1 [MG132, Z-Leu-Leu-Leu-al] (Cbz-Leu-Leu-Leu-aldehyde) | surprisingly strong reduction | remarkably reduced pressure level; also recorded: significantly lower | significantly higher; also recorded: more than twice higher | 5±3 mm Hg | −5046±726 mm Hg/s | dose-dependent inhibition of proliferation | small inhibitory effect | dose-dependent and dramatic reduction | up to 91% | dose-dependent and dramatic reduction | up to 73% | significantly reduced cardiac fibrosis | unaffected | very well tolerated; also recorded: in general well tolerated | 280 ± 15.3 g | neither changes in the differential blood picture nor a change in the laboratory markers | –
2 | CSCC[C@@H](C=O)NC(=O)[C@H](CC(C)C)NC(=O)[C@H](CC(C)C)NC(C)=O [ALLM] (Ac-Leu-Leu-Met-aldehyde) | – | – | – | – | – | – | – | – | – | – | – | – | – | – | – | – | no effects
3 | CC(C)C[C@H](NC(=O)[C@H](CC(C)C)NC(=O)[C@H](CC(C)C)NC(=O)OCc1ccccc1)B(O)O [MG262] | – | – | – | – | – | – | – | – | – | – | – | – | – | – | – | – | inhibited the collagen expression in a comparably effective manner
